Assay results from PubChem BioAssay AID1996.
In brackets after ≈: the same amount, converted by molar mass.

settings: buffer; pH 7.4; 200.0 µM

**Q.** Which solubility kinetic does the source give for `O=C(CC(=O)c1ccccc1)Nc1ccc(Cl)cc1` here?
**A.** 3.3 µg/mL (≈ 12.1 µM)

**Q.** Which solubility kinetic does the source give for `CCc1cccc(NC(=O)C2CCCN2C(=O)Nc2ccc(C)cc2)c1` (stereo unspecified) here?
**A.** 1.2 µg/mL (≈ 3.41 µM)

**Q.** For `CCOc1ccc(S(=O)(=O)NC2CC2)cc1`, which solubility kinetic is on record?
**A.** > 36.2 µg/mL

**Q.** Which solubility kinetic does the source give for `O=C(COc1ccc(Cl)c2cccnc12)N1CCOCC1` here?
**A.** 42.5 µg/mL (≈ 139 µM)

**Q.** For `COC(=O)Cc1ccc(NC(=S)NCCO)cc1`, which solubility kinetic is on record?
**A.** 39.3 µg/mL (≈ 146 µM)

**Q.** Which solubility kinetic does the source give for `COc1ccc(CCC(=O)OCC(=O)Nc2sccc2C(N)=O)cc1OC` here?
**A.** 21 µg/mL (≈ 53.5 µM)

**Q.** For `CC(C[N+](C)(C)C)OC(N)=O.[Cl-]` (stereo unspecified), which solubility kinetic is on record?
**A.** > 29.5 µg/mL

**Q.** Which solubility kinetic does the source give for `O=C(COC(=O)c1cnccn1)c1cccc([N+](=O)[O-])c1` here?
**A.** > 43.1 µg/mL

**Q.** With `Cc1ccc(Cc2c(C)[nH]c(=S)[nH]c2=O)cc1` as the molecule, how does the solubility kinetic read?
**A.** 7.4 µg/mL (≈ 30 µM)

**Q.** With `COc1ccc(C(=O)OCc2c(C)noc2C)cc1` as the molecule, how does the solubility kinetic read?
**A.** > 39.2 µg/mL

**Q.** Which solubility kinetic does the source give for `COc1ccc(Cn2c(=O)oc3ccccc32)cc1F` here?
**A.** 1.1 µg/mL (≈ 4.03 µM)

**Q.** Which solubility kinetic does the source give for `O=C(Cc1ccccc1F)OCN1C(=O)c2ccccc2C1=O` here?
**A.** 47 µg/mL (≈ 150 µM)

**Q.** Which solubility kinetic does the source give for `Cc1ccc(NC(=O)NC2CCCCCCC2)c(C)c1` here?
**A.** < 0.3 µg/mL

**Q.** With `Cc1ccc(O)c(NC(=S)NC(=O)C(C)C)c1` as the molecule, how does the solubility kinetic read?
**A.** > 37.8 µg/mL

**Q.** With `O=C1c2ccccc2C2(c3ccc(F)cc3)NCCN12` (stereo unspecified) as the molecule, how does the solubility kinetic read?
**A.** > 40.2 µg/mL

**Q.** With `O=C1c2ccccc2S(=O)(=O)N1Cc1c(F)cccc1Cl` as the molecule, how does the solubility kinetic read?
**A.** < 0.7 µg/mL

**Q.** Which solubility kinetic does the source give for `COc1ccc2c(c1)c(C(=O)C(C)N1CCCCC1)c(C)n2C` (stereo unspecified) here?
**A.** < 0.3 µg/mL

**Q.** For `O=C(Nc1cccc(S(=O)(=O)N2CCOCC2)c1)c1cc(=O)[nH]c2ccccc12`, which solubility kinetic is on record?
**A.** 9.9 µg/mL (≈ 23.9 µM)

**Q.** For `Cc1ccc(OCc2ccc(C(=O)N3CCCC3)o2)cc1C`, which solubility kinetic is on record?
**A.** 31.8 µg/mL (≈ 106 µM)

**Q.** Which solubility kinetic does the source give for `On1c(-c2ccccc2)nc2ccccc21` here?
**A.** > 31.5 µg/mL

**Q.** With `Cc1cc(C(=O)N2CCN(c3ncccc3C#N)CC2)no1` as the molecule, how does the solubility kinetic read?
**A.** 43.7 µg/mL (≈ 147 µM)

**Q.** For `O=C(COC(=O)CC1CCCC1)Nc1ccccc1[N+](=O)[O-]`, which solubility kinetic is on record?
**A.** 12.1 µg/mL (≈ 39.5 µM)

**Q.** Which solubility kinetic does the source give for `O=C(O)CNS(=O)(=O)c1cccc(Cl)c1` here?
**A.** > 37.5 µg/mL

**Q.** With `O=C1c2cc([N+](=O)[O-])ccc2-c2ncccc21` as the molecule, how does the solubility kinetic read?
**A.** 7.4 µg/mL (≈ 32.7 µM)

**Q.** Which solubility kinetic does the source give for `COc1ccc(Nc2ncc(C#N)c(N)n2)c(OC)c1` here?
**A.** 6.6 µg/mL (≈ 24.3 µM)

**Q.** With `C=C(Br)Cn1cnc2ccccc21` as the molecule, how does the solubility kinetic read?
**A.** > 35.6 µg/mL

**Q.** With `CC1(C)C2CCC1(CS(=O)(=O)Nc1ccccc1)C(=O)C2` (stereo unspecified) as the molecule, how does the solubility kinetic read?
**A.** 42.8 µg/mL (≈ 139 µM)

**Q.** With `COCCCN(C(=O)C1CCCCC1)c1c(N)n(Cc2ccccc2)c(=O)[nH]c1=O` as the molecule, how does the solubility kinetic read?
**A.** 14.3 µg/mL (≈ 34.5 µM)

**Q.** For `O=C(COc1ccc(S(=O)(=O)N2CCOCC2)cc1)Nc1ccc(Br)cc1`, which solubility kinetic is on record?
**A.** 5.4 µg/mL (≈ 11.9 µM)

**Q.** For `C=CCn1c(C)c(C(=O)OCC)c2cc(O)c3ccccc3c21`, which solubility kinetic is on record?
**A.** < 0.7 µg/mL

**Q.** For `Nc1ncc([N+](=O)[O-])c(Oc2ccccc2F)n1`, which solubility kinetic is on record?
**A.** > 37.5 µg/mL

**Q.** For `Cn1nc(-c2ccc(Cl)cc2)cc1NC(=O)CCCC(=O)O`, which solubility kinetic is on record?
**A.** > 48.3 µg/mL

**Q.** Which solubility kinetic does the source give for `O=C(CSc1nc2ncc(Cl)cc2[nH]1)N1CCOCC1` here?
**A.** > 46.9 µg/mL

**Q.** Which solubility kinetic does the source give for `Cc1cccc(-c2noc(CN(C)C(=O)COc3ccccc3)n2)c1` here?
**A.** 36.9 µg/mL (≈ 109 µM)

**Q.** With `CC(C)Cc1cc(C(=O)Nc2ccc(Br)cc2)no1` as the molecule, how does the solubility kinetic read?
**A.** < 0.3 µg/mL

**Q.** Which solubility kinetic does the source give for `NS(=O)(=O)c1ccc(NC(=O)Nc2ccc(S(N)(=O)=O)cc2)cc1` here?
**A.** 9.7 µg/mL (≈ 26.2 µM)

**Q.** For `COc1cc2c(C(=O)O)c(C)n(C)c2c2ccccc12`, which solubility kinetic is on record?
**A.** 7.4 µg/mL (≈ 27.5 µM)

**Q.** Which solubility kinetic does the source give for `Cc1ccc(C(=O)COc2nc(C)nc3ccccc23)cc1` here?
**A.** 4.3 µg/mL (≈ 14.7 µM)

**Q.** Which solubility kinetic does the source give for `CC(C)OCCCNC(=O)Nc1cccc2ccccc12` here?
**A.** > 43 µg/mL

**Q.** Which solubility kinetic does the source give for `Cc1cc(C)n2nc(SCC(=O)N3CCC(C)CC3)nc2n1` here?
**A.** > 47.9 µg/mL

**Q.** Which solubility kinetic does the source give for `COc1ccc(N2CC(C(=O)N3CCOCC3)CC2=O)cc1` (stereo unspecified) here?
**A.** > 45.7 µg/mL

**Q.** For `CCCC(=O)Nc1cc(C(=O)O)ccc1Sc1ccc(C)cc1`, which solubility kinetic is on record?
**A.** > 49.4 µg/mL

**Q.** For `Cc1cc(OC(=O)c2ccccc2Cl)ccc1N1C(=O)CCC1=O`, which solubility kinetic is on record?
**A.** 19 µg/mL (≈ 55.3 µM)

**Q.** For `O=C(COC(=O)c1ccc(S(=O)(=O)N2CCCC2)cc1)NCCc1ccc(F)cc1`, which solubility kinetic is on record?
**A.** 6.2 µg/mL (≈ 14.3 µM)

**Q.** Which solubility kinetic does the source give for `CCOC(=O)c1sc(-c2ccc(C(F)(F)F)cc2)nc1O` here?
**A.** > 47.6 µg/mL

**Q.** Which solubility kinetic does the source give for `CCc1ccc(N2CN(Cc3ccco3)CNC2=S)cc1` here?
**A.** 11.9 µg/mL (≈ 39.5 µM)

**Q.** With `O=C(NCCc1ccc(F)cc1)Nc1ccc([N+](=O)[O-])cc1` as the molecule, how does the solubility kinetic read?
**A.** 4.9 µg/mL (≈ 16.2 µM)

**Q.** Which solubility kinetic does the source give for `Brc1ccccc1OCCN1CCCC1` here?
**A.** 32 µg/mL (≈ 118 µM)

**Q.** For `CCOc1ccc(/C=C2\SC(N3CCCCC3)=NC2=O)cc1`, which solubility kinetic is on record?
**A.** 1.6 µg/mL (≈ 5.06 µM)

**Q.** For `CCOC(=O)CC1COc2ccccc2N1C(=O)c1ccc(F)cc1` (stereo unspecified), which solubility kinetic is on record?
**A.** 47 µg/mL (≈ 137 µM)

**Q.** Which solubility kinetic does the source give for `CSc1nsc(SCC(=O)Nc2ccc(OC(C)=O)cc2)n1` here?
**A.** 2.8 µg/mL (≈ 7.88 µM)

**Q.** Which solubility kinetic does the source give for `COc1ccc(/C=C2/C(=O)ON=C2C)cc1Br` here?
**A.** 14 µg/mL (≈ 47.3 µM)

**Q.** With `CC(C)C1CC(C(=O)Nc2ccccc2)C(=O)O1` (stereo unspecified) as the molecule, how does the solubility kinetic read?
**A.** 34.9 µg/mL (≈ 141 µM)

**Q.** For `CCCS(=O)(=O)c1ccc(COC(=O)c2ccc(NC(C)=O)cc2)cc1`, which solubility kinetic is on record?
**A.** 25.5 µg/mL (≈ 67.9 µM)

**Q.** With `Cc1ccc(C(CC(=O)N2CCCCC2)c2ccccc2)c(O)c1C` (stereo unspecified) as the molecule, how does the solubility kinetic read?
**A.** 3.8 µg/mL (≈ 11.3 µM)

**Q.** For `COc1ccccc1OCCCOc1cccc(/C=C2\SC(=O)NC2=O)c1`, which solubility kinetic is on record?
**A.** < 0.8 µg/mL

**Q.** Which solubility kinetic does the source give for `CCOC(=O)C(Nc1ccc2ccccc2c1)C(=O)OCC` here?
**A.** > 45.2 µg/mL

**Q.** For `COc1ccccc1Oc1nc([N+](=O)[O-])nn1CC(N)=O`, which solubility kinetic is on record?
**A.** > 44 µg/mL

**Q.** With `Cc1c(C(=O)NCc2ccco2)oc2c(F)cccc12` as the molecule, how does the solubility kinetic read?
**A.** 8.1 µg/mL (≈ 29.6 µM)

**Q.** With `CCOc1ccc(N2CC(C(=O)Nc3cc(S(=O)(=O)N4CCCCC4)ccc3C)CC2=O)cc1` (stereo unspecified) as the molecule, how does the solubility kinetic read?
**A.** 1.3 µg/mL (≈ 2.68 µM)

**Q.** For `Cc1ccc(-c2ccc(C#N)c(=O)n2CC(=O)N(C)C)cc1`, which solubility kinetic is on record?
**A.** 3.3 µg/mL (≈ 11.2 µM)
